From patent US20250066727A1, “COMPOSITIONS AND METHODS FOR CULTURING STEM CELLS” (Beijing TheraXyte BioScience Co. Ltd., priority 2021, published 2025)

Experiments:
Type in all cases: cell-based
adult KSCs [1] = assay: Growth supplement function assay (EdU / p63); conditions: 24 hours; for concentration that could promote adult KSCs proliferation (EdU/p63 ratio): added to KSFX-free basal medium
Method: For the EdU (5-ethynyl-2′-deoxyuridine) assay, 5×10^3 cells were plated to a well of the 96-well cell culture plate and cultured for overnight. On the second day, the cells were treated with 10 μM EdU for 3 hours at 37° C. The cells were washed with PBS and then fixed with 4% formaldehyde for 30 min at RT. The cells were washed with PBS and then permeabilized with 0.1% Triton for 20 min at RT. The cells were washed with PBS and then labeled with freshly prepared EdU labeling buffer containing 5 μM of Sulfo-Cyanine 3 azide, 4 mM of Copper(II) sulfate pentahydrate, 2 mg/mL of Sodium L-ascorbate in PBS for 30 min at RT. The cells were washed with PBS and labeled with Hoechst if needed. Finally, the plate was scanned and analyzed by Celllnsight CX5 HCA reader.
Cells were washed with PBS once and then fixed with 4% formaldehyde for 30 min at room temperature (RT). The cells were washed with PBS and then permeabilized with 0.1% Triton for 20 min at RT The cells were washed with PBS and then blocked with 3% BSA for 1 hr at RT. Then the cells were incubated with primary antibodies such as anti-KRT14, or anti-p63 overnight at 4° C. The cells were washed with PBS and labeled with the secondary antibody such as Goat anti-Mouse Alexa Fluor 488, Goat anti-Rabbit Alexa Fluor 647, and Hoechst if needed. Finally, the plate was scanned and analyzed by CellInsight CX5 HCA reader. Microscopy was captured with Confocal Microscope A1 HD25.
Different concentrations of each factor were added to the KSFX-free basal medium and the adult KSCs were cultured for 24 hours. Then cells were labeled with EdU as well as the KSCs marker p63. The ratio of EdU/p63 indicates the proliferation rate of KSCs, and the p63 count indicates the total cell number which is a result of cell proliferation and cell death.

adult KSCs [2] = assay: Calcium concentration function assay in KSFX-free basal medium
Method: (§1) For long-term proliferation assay, cells were continuously passaged on the 6-well cell culture plate. For each passage, 2×10^5 viable cells were plated and then cultured for about 5 days, when the cells were ˜90% confluent, cells were passaged and the cell number as well as the viability with the cell counter were recorded. Microscopy was performed with Eclipse TS100 (Nikon).
The effect of calcium concentrations in the KSFX-free basal medium on the proliferation and differentiation of adult KSCs were tested. Cells were cultured in different concentrations of calcium, including 0 mM, 0.05 mM, 0.15 mM, 0.5 mM, and 1.5 mM for 10 passages. As shown in FIG. 8 and FIG. 9A, withdraw of calcium led to the growth stop of adult KSCs after 3 passages.

adult KSCs [3] = assay: Coating matrix function assay: attachment and spreading of adult KSCs in KSFX-free basal medium
Method: Coating Matrix Preparation—Coating matrix such as Collagen I, Poly-D-Lysine (PDL), Matrigel, rh-Fibronectin, and rh-Laminin 521 were prepared according to the instructions of the manufacture (Table 1). Briefly, for one well of the 6-well cell culture plate, 1 mL of the working solution was added to the surface of the well and the plate was incubated at the recommended condition. Then the well was washed once with 1 mL of PBS and ready to be used.
The keratinocyte stem cells (KSCs) were isolated from donated foreskin or fetal skin tissue. Briefly, the skin tissue was cleaned up with 70% ethanol and washed several times with PBS containing antibiotics. The tissue in PBS was collected, trimmed away any fat and loose fascia, and cut into strips approximately 0.5 cm×1.5 cm. The tissue was submerged in dispase and treated overnight at 4° C. The epidermis was then separated from the dermis and washed with PBS several times. All the epidermis was collected into one tube containing the TrypLE and incubated for 30 minutes at 37° C. Enough PBS was added to neutralize the TrypLE and the solution was pipetted up and down to suspend the cells. The cell suspension was passed through a 70 μm cell strainer, and then the cells were pelleted by centrifugation at 300 g for 10 minutes. The cell pellet was resuspended in culture medium and the concentration of the viable cells/mL was determined. 2×10^4 viable epidermal cells/cm^2 was plated on culture flask treated with coating matrix, and then the flask was incubated in a 37° C., 95% air/5% CO2 saturated humidity chamber. The culture medium was changed every 48 hours. Once the cultures were ˜80% confluent, the cells were subcultured and/or cryopreserved using a freezing medium. For subculture, cells were washed once by PBS then treated with TrypLE for no more than 6 min at 37° C. PBS was added to neutralize the TrypLE, and then the tube was centrifuged at 300 g for 10 min. New flasks were seeded at 1-2×10^4 cells/cm^2.
The function of each coating matrix listed in Table 1 was tested for the attachment and spreading of adult KSCs. […]

adult KSCs [4] = assay: Long-term proliferation of adult KSCs on coating matrix in KSFX-free basal medium; conditions: 5 passages
Method: as §1
Further, the proliferation functions of FN, COLI, and LN was also tested in the KSFX-free basal medium. Adult KSCs were continuously passaged and the population doubling (PD) curves were calculated.

[5] = 1.5 mM calcium, KSFX-free basal medium

With Cc1cccc(-c2nn(C(=S)Nc3ccccc3)cc2-c2ccnc3ccccc23)n1 [A 83-01] the “concentration that could promote adult KSCs proliferation (EdU/p63 ratio)” value (adult KSCs [1]) was “at least 0.5 μM”.
C[C@@H](N)[C@H]1CC[C@H](C(=O)Nc2ccncc2)CC1 [Y-27632] was tested, and the “concentration that could promote adult KSCs proliferation (EdU/p63 ratio)” value (adult KSCs [1]) was “at least 1 μM” and the “change of the total cell number (p63 count) compared with the blank” value (adult KSCs [1]; at least 1 μM (such as 1-10 μM), KSFX-free basal medium) was “two-fold change”.
With [Ca+2] [calcium] the “passages after which adult KSCs stopped growing” value (adult KSCs [2]; 0 mM calcium (withdraw of calcium), KSFX-free basal medium) was 3 passages, the “proliferation rate of adult KSCs” value (adult KSCs [2]; 0.05 mM calcium, later passages) was “started to grow slower later” and the “proliferation of adult KSCs” value (adult KSCs [2]; 0.5 mM calcium, KSFX-free basal medium) was “could proliferate longer, with more cell-to-cell connections”. The “differentiation of adult KSCs” value (adult KSCs [2]; [5]) was “most of cells had differentiated with the collapsed nucleus”, the “passages after which adult KSCs stopped growing” value (adult KSCs [2]; [5]) was 5 passages and the “calcium concentration that can better support the long-term expansion of adult KSCs” value (adult KSCs [2]; KSFX-free basal medium, 10 passages) was 0.1 to 1.0 mM.
In the case of “COLI: Collagen I coating matrix, extracted from rat tail, 50 μg/mL”, the “attachment and spreading of adult KSCs” value (adult KSCs [3]; after 30 min of culturing, bright-field microscopy) is reported as “attached to the plate and spread with a flatten morphology”, the “attachment and spreading of adult KSCs” value (adult KSCs [3]; after 2 hours of culturing) is reported as “fully spread” and the “attachment/spreading function, comparison among the coating matrix tested” value (adult KSCs [3]; overall) is reported as “performed better functions compared with MAT and PDL”. The “long-term expansion of adult KSCs in vitro” value (adult KSCs [4]) was “supported the long-term expansion of adult KSCs in vitro” and the “proliferation of adult KSCs (population doubling) compared with blank” value (adult KSCs [4]; continuously passaged) was “could promote the proliferation of adult KSCs”.
